The nature of data set [1]: Microsomal stability in human liver microsomes. Format: in vitro ADME. The note with it: NADPH, 37° C. The procedure: Frozen Sprague-Dawley rat liver microsomes (RLM) were thawed on ice and gently mixed before use. The final reaction mixture consisted of a nitrone compound of this invention (at ˜500 ng/ml), 1 mM NADPH, and 0.5 mg/ml of RLM protein in 0.1 M PBS (pH7.4), with organic solvent concentration not exceeding 1% (v/v). Per set of incubations, a positive control compound was included. The mixture was first pre-incubated 3 to 5 minutes at 37° C. without NADPH, and the reaction was then initialized by the addition of NADPH and incubated at 37° C. for up to 30 minutes. An aliquot of the reaction mixture was sampled at the initiation of the reaction and at designated time after reaction started. The drawn samples were quenched with acetonitrile, diluted with mobile phase to ensure the detection of test article in the linear range, and analyzed by LC/MS/MS. Half-life or percentage of remaining nitrone compound was calculated using standard methods. A similar method, or a slight variation of it, was used to test the stability of nitrones in human liver microsomes (HLM).
A general note: Liver microsomes are vesicles of endoplasmic reticulum, rich in cytochrome P450 enzymes.

Data set [2] in a line: Solubility measurement at pH 7.4. Format: physicochemical. As to conditions: aqueous buffer, thermodynamic from solid, phosphate buffer pH 7.4, room temperature. The protocol:
Nitrone compounds (>3 mg) of this invention were mixed with a phosphate buffer at pH 7.4 to make a >0.3 mg/mL mixture. The mixture was vortexed for more than 2 hours and equilibrated over 12 hours at room temperature. The equilibrated mixture was used to saturate a 0.45 μm Tuffryn syringe filter. After saturating, the remainder of the mixture was filtered through the saturated filter. The filtrate was diluted by 1, 10, 100, and 1000 fold and analyzed using a LC/MS/MS method with standard curve ranging from 1 to 1000 ng/mL.

Data set [3] can be described thus: DPPH free radical-scavenging/antioxidant assay. Format: biochemical. The note with it: 50 μM DPPH in 80% methanol; 24 h time point; read-out: EC50 (concentration at which a compound reduces by 50% the peak absorbance of DPPH at 520 nm). The procedure:
Nitrone compounds of the present invention were tested for their free-radical scavenging/antioxidant activity in an in vitro assay that is accepted by those skilled in the art as a model for conditions involving the generation of free radicals. The assay is based on a reaction between a free-radical donor, 2,2-diphenyl-1-picrylhydrazyl (DPPH), and a radical scavenger/antioxidant to be tested for free-radical scavenging activity. Upon donation of the free-radical electron to the purported radical scavenger, the peak visible absorbance of DPPH (515-520 nm) decreases so that optical density readings at this part of the visual spectrum reflect the progression of the following reaction:
where AH is a hypothetical radical scavenger/antioxidant. The assay is based on a protocol originally detailed in Brand-Williams, W. et al., 1995, Use of a Free Radical Method to Evaluate Antioxidant Activity, Lebensm. Wiss. Technol., 28:25-30, with further modifications described in L. R. Fukumoto and G. Mazza, 2000, Assessing Antioxidant and Prooxidant Activities of Phenolic Compounds, J. Agric. Food Chem., 48:3597-3604.
The antioxidant assay was performed using Perkin-Elmer 96-well, clear-bottom, black-wall plates (ordered from E & K Scientific Products) and a Tecan Safire absorbance plate reader. The positive controls were Trolox (6-hydroxy-2,5,7,8-tetramethylchromane-2-carboxylic acid, Sigma-Aldrich), BHA (2(3)-tert-butylhydroquinone monomethyl ether, Sigma-Aldrich), PBN (C-(phenyl)-N-(tert-butyl)nitrone, Sigma-Aldrich) and S-PBN (C-(2-sulfophenyl)-N-(tert-butyl)nitrone, sodium salt, prepared according to E. G. Janzen and R. V. Shetty, 1979, Tetrahedron Lett., 35: 3229-32), and the negative control (i.e., vehicle) was DMSO. In brief, 2 μL of 100× DMSO stock of the desired final concentration of each control or nitrone compound to be tested in the same batch was added to a separate well. To each well was then added 198 μL of a freshly made 50 μM DPPH (Sigma-Aldrich) solution in 80% methanol using a multi-channel pipette. The absorbance was immediately read on the plate reader at 520 nm and thereafter read periodically to assess kinetics until all reactions reached completion (i.e., steady state). Since the steady-state point was 24 h, the assay results are shown from the 24 h time point. The absorbance at 520 nm (OD) was plotted versus the concentrations of the controls and nitrone compounds to assess dose-response and interpolate the EC50 values of the controls and test compounds.

Data set [4] is described as follows: Pharmacokinetic evaluation following intravenous and oral administration in rats. Format: in vivo. The note with it: male, Sprague-Dawley; for Cmax / Tmax / bioavailability: 5 mg/kg; for Cmax: rat plasma; for Cmax / Tmax: oral gavage, 2 mg/mL at 2.5 mL/kg; for clearance / Vd / Tmax / bioavailability / half-life: plasma, rat; for clearance / Vd / half-life: 1 mg/kg; for clearance / Vd: intravenous administration, 1 mg/mL at 1.0 mL/kg; for clearance: read-out: CI (clearance) (converted); for Vd: read-out: Vd (volume of distribution); for bioavailability: po 2 mg/mL at 2.5 mL/kg vs iv 1 mg/mL at 1.0 mL/kg, dose-normalized, read-out: F (%) oral bioavailability; for half-life: intravenous, read-out: T1/2 elimination half life (converted). The protocol:
Male Sprague-Dawley rats were given at least 24 hours acclimation before experiment initiation. During acclimation period, all animals received food and water ad libitum. However, food (not water) was removed from the animal's cages up to 12 hours before initiation of the experiment. During the first 4 hours of experimentation, the animals received only water ad libitum. Two to three animals for iv and three animals for oral administration were tested. For iv formulation nitrone compounds of this invention were dissolved (1 mg/mL) in a mixture of 5% dimethyl acetamide (v/v), 0 to 4% Tween 80 (v/v), 10 to 40% PEG 400 (v/v) and the rest percentage of water (v/v). For oral formulation nitrone compounds of this invention were dissolved (2 mg/mL) in a mixture of 4% of 10% Tween in water and 96% of 0.5% carboxymethyl cellulose (medium viscosity) in water; or 4% of 10% Tween in water, 48% of 0.5% carboxymethyl cellulose (medium viscosity) in water, and 48% of 0.5% Hydroxypropyl Methylcellulose/0.2% Sodium Lauryl Sulfate in water. These formulations were stored at 5° C. until the experiment. Formulations were then stir-mixed at least half an hour before dosing. Exactly 200 μL of each left-over formulation was diluted with CH3CN/H2O for concentration analysis. The animals were weighed before dosing. The body weight was used to calculate the true dose for each animal:
IV dosing: • Dose volume (mL)=1.0 mL/kg The intravenous dose was administered through the jugular vein catheter or tail vein in less than 1 minute.
PO dosing: • Dose volume (mL)=2.5 mL/kg The oral dose was administered by oral gavage.
For IV dosing, blood samples were collected (using a pre-heparinized syringe) via the carotid artery or jugular vein catheter at t=2, 5, 15, 30, 60, 120, 180, 360, and 480 minutes post dosing. For PO dosing, blood samples were collected (using a pre-heparinized syringe) via the carotid artery or jugular vein catheter before dosing and at t=5, 15, 30, 60, 120, 180, 360, and 480 minutes post dosing. For some nitrone compounds a 1440 minutes (24 hours) sample was also taken for both IV and PO administrations. About 250 μL of blood was obtained at each time point from the animals. Equal volumes of 0.9% normal saline were replaced to prevent dehydration. The whole blood samples were maintained on ice until centrifugation. Blood samples were then centrifuged at 14,000 rpm for 10 minutes at 4° C. and the upper plasma layer transferred into a clean vial and stored at −80° C. The resulting plasma samples were then analyzed by mass spectroscopy using standard methods.
All the samples from above assays were analyzed on a PE-Sciex API 3000 triple quadrupole with a Turbo Ion Spray source. Nitrone compounds of this invention were separated from the matrix via a linear gradient reverse-phase chromatography using a C18 column, such as Thermo BDS Hypersil C18 (100×4.6 mm, 5 micron particle, 120A pore size). The mobile Phases were:
Nitrone compounds were detected by the mass spectrometer in the positive ion multiple reaction monitoring mode (MRM). For quantitative analysis, a standard curve was prepared by spiking a stock solution of the nitrone compound to the appropriate matrix to achieve a quantitation curve range and analyzed the standards in the same manner as the samples.
Pharmacokinetic parameters of the aryl nitrone compounds were determined by a noncompartmental analysis using WinNonlin-Pro (Version 4.1, Pharsight Corporation). Average and standard deviation of the parameters were calculated using standard formulas in Microsoft Excel.

The mark [5] stands for this setting: read-out: Solubility @ pH 7.4 (μg/mL).

Like-named read-outs stand apart in the source and are kept apart here.

Turning to `O=S(=O)(c1ccccc1/C=[N+](\[O-])C1CCCCC1)N1CCOCC1` [Compound 36], the “% of Nitrone Remaining at 30 min (Human)” value in data set [1] worked out at 24.2%. Further, the solubility in data set [2] (read-out: Solubility @ pH 7.4) amounted to 584 µM; in data set [2] (setting [5]) it was 206 µg/mL. In addition, the EC50 in data set [3] is more than 1000 µM.

Take `O=S(=O)(c1ccccc1/C=[N+](\[O-])Cc1ccccc1)N1CCOCC1` [Compound 37]: in data set [1], the “% of Nitrone Remaining at 30 min (Human)” value was 65.4%. The solubility in data set [2] (read-out: Solubility @ pH 7.4) was 5020 µM; in data set [2] (setting [5]), 1810 µg/mL. Further, the EC50 in data set [3] fell in the range of 100 to 500 µM.

`CN1CCN(S(=O)(=O)c2ccccc2/C=[N+](\[O-])C(C)(C)C)CC1` [Compound 38, N-tert-Butyl-C-[2-(4-methyl-piperazine-1-sulfonyl)phenyl]nitrone]: the “% of Nitrone Remaining at 30 min (Human)” value in data set [1] amounted to 76.6%. Also, the solubility is more than 1860 µM in data set [2] (read-out: Solubility @ pH 7.4) and more than 632 µg/mL in data set [2] (setting [5]). Also, the EC50 in data set [3] is more than 1000 µM.

Turning to `CN1CCN(S(=O)(=O)c2ccccc2/C=[N+](\[O-])C2CCCCC2)CC1` [Compound 39, N-Cyclohexyl-C-[2-(4-methyl-piperazine-1-sulfonyl)phenyl]nitrone], the “% of Nitrone Remaining at 30 min (Human)” value in data set [1] is given as 41.9%. The solubility in data set [2] (read-out: Solubility @ pH 7.4) was more than 2630 µM; in data set [2] (setting [5]), more than 962 µg/mL. Further, in data set [3], the EC50 is more than 1000 µM.

With `CN1CCN(S(=O)(=O)c2ccccc2/C=[N+](\[O-])Cc2ccccc2)CC1` [Compound 40, N-Benzyl-C-[2-(4-methyl-piperazine-1-sulfonyl)phenyl]nitrone], in data set [1], the “% of Nitrone Remaining at 30 min (Human)” value is 27.9%. In addition, the solubility in data set [2] (read-out: Solubility @ pH 7.4) is more than 2280 µM; in data set [2] (setting [5]), more than 851 µg/mL. Besides, the EC50 in data set [3] was more than 1000 µM.

With `CN(c1ccccc1)S(=O)(=O)c1ccccc1/C=[N+](\[O-])C(C)(C)C` [Compound 41], the “% of Nitrone Remaining at 30 min (Human)” value in data set [1] worked out at 0%. The figures for the solubility in data set [2] (read-out: Solubility @ pH 7.4) and in data set [2] (setting [5]) were 413 µM and 143 µg/mL, respectively. In addition, the EC50 in data set [3] was more than 1000 µM.

`CC(C)(C)/[N+]([O-])=C/c1ccccc1S(=O)(=O)N1CCCc2ccccc21` [Compound 44, N-tert-Butyl-C-[2-(3,4-dihydro-2H-quinoline-1-sulfonyl)phenyl]nitrone]: the “% of Nitrone Remaining at 30 min (Human)” value in data set [1] was found to be 0%. The solubility was 156 µM in data set [2] (read-out: Solubility @ pH 7.4) and 58.1 µg/mL in data set [2] (setting [5]). Also, the EC50 in data set [3] was more than 1000 µM.

As to `O=S(=O)(c1ccccc1/C=[N+](\[O-])C1CCCCC1)N1CCCc2ccccc21` [Compound 45, N-Cyclohexyl-C-[2-(3,4-dihydro-2H-quinoline-1-sulfonyl)phenyl]nitrone], the “% of Nitrone Remaining at 30 min (Human)” value in data set [1] was 0%. Also, the values for the solubility in data set [2] (read-out: Solubility @ pH 7.4) and in data set [2] (setting [5]) were 3.5 µM and 1.42 µg/mL, respectively. For the same molecule, the EC50 in data set [3] is more than 1000 µM.

Turning to `CC(C)(C)NS(=O)(=O)c1ccccc1/C=[N+](\[O-])C(C)(C)C` [Compound 48, N-tert-Butyl-C-(2-tert-butylsulfamoyl-phenyl)nitrone], the “% of Nitrone Remaining at 30 min (Human)” value in data set [1] came to 100%. For the same molecule, in data set [4], the Cmax (commonly the maximum level reached in the sampled fluid or tissue) came to 862 ng/mL, the clearance is 32.8 mL/min/kg, the Vd amounted to 1.39 L/kg and the time of peak concentration (Tmax) (usually the time at which the peak concentration occurs) turned out to be 15 min. Besides, in data set [4], the bioavailability (in general, dose-corrected exposure relative to a reference, in per cent) came to 55.3% and the half-life was 29.4 min. For the same molecule, the EC50 in data set [3] is more than 1000 µM.

With `CN(c1ccccc1)S(=O)(=O)c1ccc(/C=[N+](\[O-])C(C)(C)C)cc1` [Compound 54, N-tert-Butyl-C44-(methyl-phenyl-sulfamoyl)phenylInitrone], the “% of Nitrone Remaining at 30 min (Human)” value in data set [1] is given as 62%. In addition, in data set [4], the Cmax was found to be 180 ng/mL, the clearance was 35.8 mL/min/kg, the Vd stood at 3.21 L/kg and the time of peak concentration (Tmax) was 15 min. In addition, in data set [4], the bioavailability turned out to be 13.2% and the half-life was 61.8 min. Further, in data set [3], the EC50 was more than 1000 µM.

Turning to `CC(C)(C)NS(=O)(=O)c1ccc(/C=[N+](\[O-])C2CCCCC2)cc1` [Compound 60, N-Cyclohexyl-C-[4-(tert-butylsulfamoyl)phenyl]nitrone], in data set [1], the “% of Nitrone Remaining at 30 min (Human)” value was determined as 100%. For the same molecule, in data set [4], the concentration peaked (Cmax) at 1.59 ng/mL, the clearance is 63.3 mL/min/kg, the Vd was determined as 2.84 L/kg and the Tmax turned out to be 8.4 min. In data set [4], the bioavailability came out at 0.4% and the half-life is 30.6 min. In data set [3], the EC50 was more than 1000 µM.

The record behind these values is patent US20100168112A1, “2-Substituted and 4-substituted aryl nitrone compounds” (RENOVIS, INC., priority 2004, published 2010).
